Experiments:
[1] = tested on: Antibody column: 1,25-(OH)2-vitamin D3/D2 Immuno Tube Extraction Kit; experiment: Antibody column fractionation of pooled serum, LC-MS/MS of adsorbed and non-adsorbed fractions; format: binding; conditions: SRM chromatograms FIG. 5B/5C
Procedure: (4) Sample Pretreatment • (4-1) In a microtube, 200 μL of a calibrator or a pooled serum, 180 μL of IS, and 20 μL of additives were placed, and the whole was stirred to prepare a sample. To the calibrator, 10 μL of an aqueous 1α,25-(OH)2D3 solution (1 ng/mL) and 10 μL of an aqueous 1α,25-(OH)2D3-^13C3 solution (1 ng/mL) were added as the additives. To the pooled serum, 10 μL of an aqueous 1α,25-(OH)2D3-^13C3 solution (1 ng/mL) and 10 μL of water were added. • (4-2) The sample was loaded on an antibody column, and the column sealed with a cap was gently shaken. • (4-3) The sample was rotated and mixed at room temperature for 1 hour with a rotator to be subjected to antigen-antibody reaction. • (4-4) The outlet of the antibody column was released, and the column was centrifuged at 550 g for 2 minutes to collect a non-adsorbed fraction. • (4-5) Into the column, 500 μL of WASHSOL supplied with the antibody column kit was added, and the column was centrifuged at 550 g for 2 minutes. […]

[2] = tested on: Antibody column: 1,25-(OH)2-vitamin D3/D2 Immuno Tube Extraction Kit; experiment: Separation measurement of 4β,25-(OH)2D3: antibody column fractionation of spiked vitamin D free serum, LC-MS/MS of fractions; format: binding; conditions: vitamin D free serum with 4β,25-(OH)2D3 at 50 pg/mL; SRM chromatograms FIG. 4A/4B
Description: • Standard: 4β,25-(OH)2D3 (vitamin D compound 54 produced in Example 1) • Stable isotope-labeled compound: 4β,25-(OH)2D3-d4 (vitamin D compound 52 produced in Example 1) • Vitamin D free serum: MSG1000 (Golden West Biologicals) • Antibody column: 1,25-(OH)2-vitamin D3/D2 Immuno Tube (trademark) Extraction Kit (Immunodiagnostik) • SLE column: Isolute SLE+ column (Biotage) • Derivatization reagent (DAP-PA): JeoQuant Kit for LC-MS/MS Analysis of Vitamin D Metabolites (JEOL) (2) IS (Internal Standard) Solution
An aqueous 4β,25-(OH)2D3-d4 solution was prepared at the concentration shown below.
(3) Sample Pretreatment • (3-1) In a microtube, 200 μL of a vitamin D free serum prepared to have a 4β,25-(OH)2D3 concentration of 50 pg/mL and 30 μL of IS were placed to prepare a sample. • (3-2) The sample was loaded on an antibody column, and the column sealed with a cap was gently shaken. • (3-3) The sample was rotated and mixed at room temperature for 1 hour with a rotator to be subjected to antigen-antibody reaction. • (3-4) The outlet of the antibody column was released, and the column was centrifuged at 550 g for 2 minutes to collect a non-adsorbed fraction. • (3-5) Into the column, 500 μL of WASHSOL supplied with the antibody column kit was added, and the column was centrifuged at 550 g for 2 minutes. […]

C=C1/C(=C\C=C2/CCC[C@]3(C)[C@@H]([C@H](C)CCCC(C)(C)O)CC[C@@H]23)C[C@@H](O)C[C@@H]1O [1α,25(OH)2D3, 1α,25-dihydroxyvitamin D3]
Fraction of the antibody column in which the compound was collected [1]: collected in the adsorbed fraction

C=C1CC[C@H](O)[C@H](O)/C1=C/C=C1\CCC[C@]2(C)[C@@H]([C@H](C)CCCC(C)(C)O)CC[C@@H]12 [4β,25-(OH)2D3, 4β,25-dihydroxyvitamin D3]
Fraction of the antibody column that contains the compound [2]: only in the non-adsorbed fraction
Fraction of the antibody column in which the compound was collected [1]: collected in the non-adsorbed fraction

From US12630505B2, “Alkyne compound, vitamin D compound, analytical method, and production method” (Tokyo University of Agriculture and Technology, priority 2021, dated 2026)
